Test results as given in patent US20240376094A2, “SELECTIVE BCL-XL PROTAC COMPOUNDS AND METHODS OF USE” (Les Laboratoires Servier, priority 2021, published 2024).
pIC50: −log10 of the molar value.

How the values were obtained:
Type in all cases: cell-based
HiBiT-tagged BCL-xL = target: T1, HiBiT-tagged BCL-xL (Homo sapiens, UniProt Q07817); test: NCI-H1650 BCL-xL protein levels, Nano-Glo HiBiT Lytic Detection; conditions: NCI-H1650 expressing HiBiT-tagged BCL-xL, overnight incubation, read-out: Bcl-xl HIBIT NCIH1650 DC50
T1 construct: expressed in transfected cells; host or cells: NCI-H1650 (ATCC No. CRL-5883), engineered HiBiT cell line
T1 sequence (Q07817 whole entry): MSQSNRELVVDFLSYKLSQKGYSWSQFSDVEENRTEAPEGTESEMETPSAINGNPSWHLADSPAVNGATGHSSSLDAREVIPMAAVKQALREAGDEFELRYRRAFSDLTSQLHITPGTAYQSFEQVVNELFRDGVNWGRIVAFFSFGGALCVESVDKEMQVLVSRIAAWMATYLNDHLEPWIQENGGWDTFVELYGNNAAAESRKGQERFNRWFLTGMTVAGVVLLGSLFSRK
How it was run: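 NCI-H1650 cells expressing HiBiT-tagged BCL-xL (5000/well) were treated overnight at 37° C with 10 concentrations, final 0.508 nM-10 μM, in triplicate. Remaining BCL-xL measured by Nano-Glo HiBiT lytic luminescence, normalized to untreated cells; 50% values by four-parameter logistic fit.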

MOLT-4 cells = test: MOLT-4 cell viability, MTT assay; conditions: Homo sapiens, MOLT-4, 48 h
How it was run: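 MOLT-4 cells in RPMI 1640 with 10% FBS were exposed to compounds for 48 h at 9 concentrations (3.16-fold dilutions, triplicates). After 4 h with MTT and overnight SDS/HCl solubilisation, absorbance was read at 540 nm. IC50 came from four-parameter fits versus control, as the mean of ≥2 independent experiments.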

[1] = tested on: EBC-1 lung cancer cell line; test: EBC-1 cell proliferation, CellTiter-Glo assay; conditions: Homo sapiens, 120 h; Ebc-1 cell viability, CTG assay, 5 days of treatment; read-out: CTG 5 day Ebc1 GI50
How it was run: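 EBC-1 cells seeded at 1000 per well overnight, then exposed to 10-point dilutions (0.508 nM–10 μM final) for 5 days at 37 °C, in triplicate. ATP luminescence by CellTiter-Glo, normalised to untreated wells; GI50 from four-parameter logistic fit, runs valid only with at least one doubling.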

Bcl-xL = target: T2, Bcl-xL (Homo sapiens, UniProt Q07817); test: HCT116 Bcl-xL degradation, capillary-based immunoassay (WES); conditions: for DC50: HCT116, 24 h, 9-point serial dilution; for remaining activity at 0.01 µM / remaining activity at 0.1 µM: HCT-116, 24 h, % of untreated cells; for remaining activity at 0.01 µM: HCT116, 10 nM; for remaining activity at 0.1 µM: HCT116, 100 nM
T2 construct: Measured levels of Bcl-xL protein of HCT116 cells treated with the tested compounds; host or cells: HCT116
T2 sequence (Q07817 whole entry): as above
How it was run: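 HCT116 cells treated 24 h with compound at 10/100 nM and/or 9-point dilution (quadruplicates), then lysed. Bcl-xL measured by capillary WES immunoassay, normalized to cofilin and expressed as % of untreated cells. DC50 from four-parameter curve fit.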

DC50 (HiBiT-tagged BCL-xL) [nM] | pIC50 (MOLT-4 cells) | GI50 [1] [nM] | DC50 (Bcl-xL) [nM] | remaining activity at 0.01 µM (Bcl-xL) [%] | remaining activity at 0.1 µM (Bcl-xL) [%] | SMILES
1 | 8.97 | 13 | 0.286 | 26 | 11 | Cc1ncsc1-c1ccc([C@H](C)NC(=O)[C@@H]2C[C@@H](O)CN2C(=O)[C@@H](NC(=O)CCCCCCCCCCCN(C)CCOC23CC4(C)CC(C)(CC(Cn5ncc(-c6ccc(N7CCCc8c7nnc(Nc7nc9ccccc9s7)c8C)nc6C(=O)O)c5C)(C4)C2)C3)C(C)(C)C)cc1 [Example 2, 6-[3-(1,3-benzothiazol-2-ylamino)-4-methyl-6,7-dihydro-5H-pyrido[2,3-c]pyridazin-8-yl]-3-[1-[[3-[2-[[12-[[(1S)-1-[(2S,4R)-4-hydroxy-2-[[(1S)-1-[4-(4-methylthiazol-5-yl)phenyl]ethyl]carbamoyl]pyrrolidine-1-carbonyl]-2,2-dimethyl-propyl]amino]-12-oxo-dodecyl]-methyl-amino]ethoxy]-5,7-dimethyl-1-adamantyl]methyl]-5-methyl-pyrazol-4-yl]pyridine-2-carboxylic acid]
3 | 7.49 | 9 | 4.21 | 23 | 17 | Cc1ncsc1-c1ccc([C@H](C)NC(=O)[C@@H]2C[C@@H](O)CN2C(=O)[C@@H](NC(=O)CCCCCCN(C)CCOC23CC4(C)CC(C)(CC(Cn5ncc(-c6ccc(N7CCCc8c7nnc(Nc7nc9ccccc9s7)c8C)nc6C(=O)O)c5C)(C4)C2)C3)C(C)(C)C)cc1 [Example 3, 6-[3-(1,3-benzothiazol-2-ylamino)-4-methyl-6,7-dihydro-5H-pyrido[2,3-c]pyridazin-8-yl]-3-[1-[[3-[2-[[7-[[(1S)-1-[(2S,4R)-4-hydroxy-2-[[(1S)-1-[4-(4-methylthiazol-5-yl)phenyl]ethyl]carbamoyl]pyrrolidine-1-carbonyl]-2,2-dimethyl-propyl]amino]-7-oxo-heptyl]-methyl-amino]ethoxy]-5,7-dimethyl-1-adamantyl]methyl]-5-methyl-pyrazol-4-yl]pyridine-2-carboxylic acid]
0.4 | 9.07 | 1 | 0.279 | 33 | 14 | Cc1ncsc1-c1ccc([C@H](C)NC(=O)[C@@H]2C[C@@H](O)CN2C(=O)[C@@H](NC(=O)CCCCCCCCCCCCCN(C)CCOC23CC4(C)CC(C)(CC(Cn5ncc(-c6ccc(N7CCCc8c7nnc(Nc7nc9ccccc9s7)c8C)nc6C(=O)O)c5C)(C4)C2)C3)C(C)(C)C)cc1 [Example 4, 6-[3-(1,3-benzothiazol-2-ylamino)-4-methyl-6,7-dihydro-5H-pyrido[2,3-c]pyridazin-8-yl]-3-[1-[[3-[2-[[14-[[(1S)-1-[(2S,4R)-4-hydroxy-2-[[(1S)-1-[4-(4-methylthiazol-5-yl)phenyl]ethyl]carbamoyl]pyrrolidine-1-carbonyl]-2,2-dimethyl-propyl]amino]-14-oxo-tetradecyl]-methyl-amino]ethoxy]-5,7-dimethyl-1-adamantyl]methyl]-5-methyl-pyrazol-4-yl]pyridine-2-carboxylic acid]
> 1670 | 7.88 | 25 |  | 104 | 88 | Cc1ncsc1-c1ccc(CNC(=O)[C@@H]2C[C@@H](O)CN2C(=O)[C@@H](NC(=O)CCCCC(=O)N2CCN(CC#Cc3ccc(OCCCc4sc(N5CCCc6c5nnc(Nc5nc7ccccc7s5)c6C)nc4C(=O)O)c(F)c3)CC2)C(C)(C)C)cc1 [Example 19, 2-[3-(1,3-benzothiazol-2-ylamino)-4-methyl-6,7-dihydro-5H-pyrido[2,3-c]pyridazin-8-yl]-5-[3-[2-fluoro-4-[3-[4-[6-[[(1S)-1-[(2S,4R)-4-hydroxy-2-[[4-(4-methylthiazol-5-yl)phenyl]methylcarbamoyl]pyrrolidine-1-carbonyl]-2,2-dimethyl-propyl]amino]-6-oxo-hexanoyl]piperazin-1-yl]prop-1-ynyl]phenoxy]propyl]thiazole-4-carboxylic acid]
> 1670 | 9.14 | 1 | 0.11 | 19 | 23 | Cc1c(Nc2nc3ccccc3s2)nnc2c1CCCN2c1ccc(-c2cnn(CC34CC5(C)CC(C)(C3)CC(OCCN(C)CCCCCCCCCCOc3ccc6c(c3)C(=O)N(C3CCC(=O)NC3=O)C6=O)(C5)C4)c2C)c(C(=O)O)n1 (stereo not drawn) [Example 60, 6-[3-(1,3-benzothiazol-2-ylamino)-4-methyl-6,7-dihydro-5H-pyrido[2,3-c]pyridazin-8-yl]-3-[1-[[3-[2-[10-[2-(2,6-dioxo-3-piperidyl)-1,3-dioxo-isoindolin-5-yl]oxydecyl-methyl-amino]ethoxy]-5,7-dimethyl-1-adamantyl]methyl]-5-methyl-pyrazol-4-yl]pyridine-2-carboxylic acid]
1 | 8.45 | 4 | 0.978 |  |  | Cc1ncsc1-c1ccc([C@H](C)NC(=O)[C@@H]2C[C@@H](O)CN2C(=O)[C@@H](NC(=O)CCCCCCCCCCN(C)CCOC23CC4(C)CC(C)(CC(Cn5ncc(-c6ccc(N7CCCc8c7nnc(Nc7nc9ccccc9s7)c8C)nc6C(=O)O)c5C)(C4)C2)C3)C(C)(C)C)cc1 [Example 135, 6-[3-(1,3-benzothiazol-2-ylamino)-4-methyl-6,7-dihydro-5H-pyrido[2,3-c]pyridazin-8-yl]-3-[1-[[3-[2-[[11-[[(1S)-1-[(2S,4R)-4-hydroxy-2-[[(1S)-1-[4-(4-methylthiazol-5-yl)phenyl]ethyl]carbamoyl]pyrrolidine-1-carbonyl]-2,2-dimethyl-propyl]amino]-11-oxo-undecyl]-methyl-amino]ethoxy]-5,7-dimethyl-1-adamantyl]methyl]-5-methyl-pyrazol-4-yl]pyridine-2-carboxylic acid]
1 | 8.84 | 1 | 2.71 |  |  | Cc1ncsc1-c1ccc([C@H](C)NC(=O)[C@@H]2C[C@@H](O)CN2C(=O)[C@@H](NC(=O)CCCCCCCCCCCCN(C)CCOC23CC4(C)CC(C)(CC(Cn5ncc(-c6ccc(N7CCCc8c7nnc(Nc7nc9ccccc9s7)c8C)nc6C(=O)O)c5C)(C4)C2)C3)C(C)(C)C)cc1 [Example 136, 6-[3-(1,3-benzothiazol-2-ylamino)-4-methyl-6,7-dihydro-5H-pyrido[2,3-c]pyridazin-8-yl]-3-[1-[[3-[2-[[13-[[(1S)-1-[(2S,4R)-4-hydroxy-2-[[(1S)-1-[4-(4-methylthiazol-5-yl)phenyl]ethyl]carbamoyl]pyrrolidine-1-carbonyl]-2,2-dimethyl-propyl]amino]-13-oxo-tridecyl]-methyl-amino]ethoxy]-5,7-dimethyl-1-adamantyl]methyl]-5-methyl-pyrazol-4-yl]pyridine-2-carboxylic acid]
> 1670 | 7.79 | 4 | > 316 |  |  | Cc1ncsc1-c1ccc(CNC(=O)[C@@H]2C[C@@H](O)CN2C(=O)[C@@H](NC(=O)C2(F)CC2)C(C)(C)C)c(OCCCCCCN(C)CCOC23CC4(C)CC(C)(CC(Cn5ncc(-c6ccc(N7CCCc8c7nnc(Nc7nc9ccccc9s7)c8C)nc6C(=O)O)c5C)(C4)C2)C3)c1 [Example 137, 6-[3-(1,3-benzothiazol-2-ylamino)-4-methyl-6,7-dihydro-5H-pyrido[2,3-c]pyridazin-8-yl]-3-[1-[[3-[2-[6-[2-[[[(2S,4R)-1-[(2S)-2-[(1-fluorocyclopropanecarbonyl)amino]-3,3-dimethyl-butanoyl]-4-hydroxy-pyrrolidine-2-carbonyl]amino]methyl]-5-(4-methylthiazol-5-yl)phenoxy]hexyl-methyl-amino]ethoxy]-5,7-dimethyl-1-adamantyl]methyl]-5-methyl-pyrazol-4-yl]pyridine-2-carboxylic acid]
3 | 8.45 | 7 | 0.397 |  |  | Cc1ncsc1-c1ccc(CNC(=O)[C@@H]2C[C@@H](O)CN2C(=O)[C@@H](NC(=O)C2(F)CC2)C(C)(C)C)c(OCCCCCCCCCCCCN(C)CCOC23CC4(C)CC(C)(CC(Cn5ncc(-c6ccc(N7CCCc8c7nnc(Nc7nc9ccccc9s7)c8C)nc6C(=O)O)c5C)(C4)C2)C3)c1 [Example 139, 6-[3-(1,3-benzothiazol-2-ylamino)-4-methyl-6,7-dihydro-5H-pyrido[2,3-c]pyridazin-8-yl]-3-[1-[[3-[2-[12-[2-[[[(2S,4R)-1-[(2S)-2-[(1-fluorocyclopropanecarbonyl)amino]-3,3-dimethyl-butanoyl]-4-hydroxy-pyrrolidine-2-carbonyl]amino]methyl]-5-(4-methylthiazol-5-yl)phenoxy]dodecyl-methyl-amino]ethoxy]-5,7-dimethyl-1-adamantyl]methyl]-5-methyl-pyrazol-4-yl]pyridine-2-carboxylic acid]
